This is an account of results in patent US11987579B2 (Duke University, priority 2018, dated 2024).

One data set deals with Fzd1-GFP. In words: Frizzled 1-GFP (Fzd1-GFP) internalization assay. It is filed as cell-based. Particulars: 12.5 μM, 6 h, 37° C., U20S cells stably expressing Fzd1-GFP, confocal microscopy, vs DMSO. As to the method:
The Frizzled 1-GFP (Fzd1-GFP) assay was performed following a procedure similar to that previously reported (Chen et al., Biochemistry 2009, 48, 10267). Briefly, U20S cells stably expressing Fzd1-GFP were plated in con local dishes and incubated at 37° C. with 5% CO2. After 24 hours the cells were treated with 12.5 μM of test compound (dissolved in DMSO) or DMSO alone in media as a control for 6 hours at 37° C. and then fixed with 4% paraformaldehyde. The cells were then examined by microscopy using an LSM 510-Meta confocal microscope (Carl Zeiss, Thornwood, N.Y., USA) equipped with 40× and 100×apo chromat objectives. GFP was excited using a 488-nm argon laser line. Images were processed using the LSM software Image Browser.

In another data set the test system is six CRC tumor cell lines. In words: MTS assay, summary over six CRC tumor cell lines. The following applies: read-out: IC50 values, range over the six CRC cell lines. It is filed as cell-based. As to the method: (§1) Colon cancer cell lines SW948, HT-29, HCT116, CRC240, SW480, and DLD-1 were used in the cell proliferation assay. All cell lines, except CRC240, were from ATCC. CRC240, a colorectal cancer patient derived xenograft (PDX) cell line, was obtained from the Hsu lab (Duke University). Generation of CRC240 cell line was previously reported. SW948 cells were cultured in Leibovitz's medium (Gibco, catalog number 21083-027). HT-29 and HCT116 cells were cultured in McCoy's 5A medium (Gibco, catalog number 16600-082). SW480 cells were cultured in MEM medium. CRC240 and DLD-1 cells were cultured in RPMI medium (Gibco, catalog number 11875-093). All media were supplemented with 10% FBS and 100 U/ml penicillin-streptomycin. […] IC50 values calculated using Graphpad Prism.

In another data set the test system is CRC240. In words: Inhibition of cell proliferation by MTS assay, CRC240. Particulars: Homo sapiens; CRC240, MTS assay at 72 hr. It is filed as cell-based. As to the method: as §1
Data set [1] concerns Wnt/β-catenin target gene protein levels. In words: Evaluation of Wnt signaling inhibition by Western blot. The format is cell-based. Particulars: 5 μM, 18 h; HCT116, SW-480 and CRC240 cells. As to the method: All cells were plated in 6 well-plates and allowed to attach overnight in a 5% CO2 incubator at 37° C. to reach 50-70 percent confluency. The cells were then treated with the indicated compound for 18 hours. Whole cell lysates were prepared by adding 200 μL 1.5× Laemmli sample buffer. Cytosolic lysates were prepared by treating cells with hypotonic buffer and dispersing cell aggregates by drawing the lysate buffer in and out a syringe equipped with 25G×1 needles. The cytosolic lysate was centrifuged at 15,000 rpm for 120 minutes, 200 μL of cytosol lysate was collected and 67 μL of 4× Laemmli sample buffer was added. Whole cell lysates were subjected to Western blot analysis using antibodies to c-Myc (Santa Cruz Biotechnology, catalog number SC-40), Cyclin D1 (Cell Signaling Technology, catalog number 2978), and Survivin (Cell Signaling Technology, catalog number 2808). Cytosol lysate were subjected to Western blot analysis using antibodies to β-catenin (Santa Cruz Biotechnology SC-7963) and Axin2 (Cell Signaling Technology, catalog number 2151). An antibody to β-actin (Santa Cruz Biotechnology, catalog number SC-47798) was used as a loading control.

A further data set deals with DLD-1. In words: Inhibition of cell proliferation by MTS assay, DLD-1. The format is cell-based. The following applies: Homo sapiens; DLD-1, MTS assay at 72 hr. As to the method:
as §1

A short description of data set [2]: Pharmacokinetic analysis of DK419 in mouse plasma after oral dose. It is filed as in vivo, NOD/SCID mice. Particulars: mice; for Cmax: read-out: Cmax (second line). As to the method:
DK419 was dissolved in 10% N-Methyl pyrrolidinone (Sigma, catalog number 328634) and 90% PEG300 (Sigma, catalog number 20237) at 0.2 mg/mL, and dosed orally to NOD/SCID mice (n=4) at 1 mg/kg. Blood samples (20 μL) were collected serially from tail vein into vials containing 1 μL of 1000 U/mL heparin at the following time-points: pre-dose, 0.25, 0.5, 1, 2, 4, 8, 24, 48, and 72 h after drug administration. After centrifugation at 1300 g for 5 min at room temperature, plasma was separated and stored at −80° C. until the analysis.
Quantification of DK419 in mouse plasma was started by vigorous agitation of 4 μL sample, 10 μL of 20 ng/mL DK4-106-3 (in-house made internal standard analog), 20 μL of water, and 100 μL of ethyl-acetate. After centrifugation at 16,000 g for 5 min at room temperature, 80 μL of organic (upper) layer was dried under nitrogen stream, residue reconstituted with a mixture of 50% mobile phase A (10 mM ammonium acetate, 0.1% formic acid) and 50% mobile phase B (methanol), and 5 μL injected into LC/MS/MS system. Analysis was performed on Shimadzu series 20A LC/Applied Biosystems/SCIEX API 4000 QTrap MS/MS instrument. Column: Agilent Eclipse 4.6×50 ram, 1.8 μm at 50° C. Elution gradient: 0-2 min 50-90% B, 2-2.5 min 90% B, 2.5-2.7 min, 90-50% B; flow […]. MS/MS transitions followed: 405.8/218.9 (DK419) and 331.8/311.8 (DK4-106-3; int. std.). Run time: 5 min. Calibration samples were prepared by adding pure DK419 to pooled mouse plasma in 2.4 ng/mL (LLOQ)-1000 ng/mL range and analyzed alongside the PK study samples. The calibration curve was linear (r=0.999).

A further data set deals with HCT116 cells. Particulars: 0.5 and 1.5 μM; cited from earlier work.
For data set [3] the following is noted: niclosamide 200 mg/kg oral, mice, non-compartmental, cited from earlier work.
Setting [4] is: DK419 1 mg/kg oral, compartmental.
Where [5] appears, read: DK419 1 mg/kg oral, non-compartmental.

Each structure is given as a SMILES string. Read-outs that look alike come from different tables or passages of the source.

In the case of `O=C(Nc1ccc(C(F)(F)F)cc1)c1cc(Cl)cc2nc(C(F)(F)F)[nH]c12` [DK419, 6-chloro-2-(trifluoromethyl)-N-(4-(trifluoromethyl)phenyl)-1H-benzo[d]imidazole-4-carboxamide], the “Fzd1-GFP receptor internalization (green fluorescent internal puncta)” value in the data set with Fzd1-GFP is reported as “robust punctate pattern”. In the data set with six CRC tumor cell lines, the IC50 is 40 to 350 nM. The midpoint of inhibition in the data set on CRC240, the IC50, lay at 310 nM. For the same compound, in data set [1], the “levels of Axin2, β-catenin, c-Myc, Cyclin D1 and Survivin by Western blot” value is “reduced levels”. Moreover, the IC50 with DLD-1 was found to be 350 nM. Besides, in data set [2] (setting [4]), the AUCinf is 16300 ng·h/mL (per kg BW), the AUCinf/DOSE was 16.3 µg·h/mL (per mg), the t1/2-absorption is 2.0 h and the t1/2-elimination turned out to be 10.8 h. The Cmax in data set [2] (setting [4]) worked out at 1790 nM. In addition, the Tmax in data set [2] (DK419 1 mg/kg oral, compartmental, 1st order extrav. input, 1st order elimination) is reported as 5.85 h. Moreover, in data set [2] (setting [5]), the AUCinf was 16900 ng·h/mL (per kg BW), the AUCinf/DOSE was 16.9 µg·h/mL (per mg), the CL/F is reported as 0.06 L/h (per kg BW) and the MRT turned out to be 15.8 h. In data set [2] (setting [5]), the t1/2-elimination is 9.2 h and the Cmax was found to be 1840 nM. The Tmax in data set [2] (DK419 1 mg/kg oral, non-compartmental extravascular input) is given as 4.5 h. In data set [2] (DK419 1 mg/kg oral, non-compartmental, 0-72 h), the AUC0-LAST was 16800 ng·h/mL (per kg BW). The CL/F in data set [2] (NOD/SCID, mouse, plasma, DK419 1 mg/kg oral, compartmental, read-out: CL/F (converted)) is 1 mL/min/kg. Also, in data set [2] (single 1 mg/kg oral dose), the “time for which plasma levels were sustained” value is on record as “more than 24 hours”. Also, the “plasma concentration at 24 hours relative to its IC50 in the TOPFlash and MTS assays” value in data set [2] (single 1 mg/kg oral dose, 24 hours) is 3 fold.

With `O=C(Nc1ccc([N+](=O)[O-])cc1Cl)c1cc(Cl)ccc1O` [Niclosamide, reference compound], the “Fzd1-GFP receptor internalization (green fluorescent internal puncta)” value in the data set with Fzd1-GFP is given as “robust punctate pattern”. Moreover, the IC50 is 100 to 1780 nM in the data set on six CRC tumor cell lines, 680 nM with CRC240 and 1780 nM in the data set with DLD-1. Also, the “oxygen consumption rate in HCT116 cells” value with HCT116 cells is “caused oxygen consumption rate to increase”. For the same compound, the “levels of Axin2, β-catenin, c-Myc, Cyclin D1 and Survivin by Western blot” value in data set [1] was “reduced levels”. Also, the AUC0-LAST in data set [3] (0-24 h) is 1010 ng·h/mL (per kg BW). Further, the AUCinf in data set [3] was 1020 ng·h/mL (per kg BW). In addition, the MRT in data set [3] was 6.8 h. In addition, in data set [3] (read-out: Cmax (second line)), the Cmax was 2730 nM.
